Data reported in patent US9642874B2, “Compositions of selenoorganic compounds and methods of use thereof” (Alltech, Inc., priority 2014, dated 2017).

What was measured:
Foxo3 = assay: Western blot of Foxo3 / pFoxo3T32 in AML-12 cells; assay type: cell-based, mouse; details: individual compound, 150 ppb, serum-containing media, 6 hours and 24 hours
Protocol: (§1) For the studies of protein expression, AML-12 cells were amplified in ITS, Dex and FBS-containing DMEM/F12 media, and cultured on 6-well (3.33×10^5 cells/well) plates in 10% FBS ITS-free DMEM/F12 media with or without Dex overnight. These cells were treated with control (water) or various compounds in either serum containing (10% FBS ITS-free DMEM/F12 media supplemented with Dex) or serum-free (ITS/Dex-free DMEM/F12 media) for 6 hours and 24 hours. In addition, human neuroblast IMR-32 cells were cultured in 10% FBS EMEM media and then treated with control (water), selenium compounds and their sulfur analogs in the same serum-containing media for 6 hours and 24 hours.
(§2) AML-12 liver cells or IMR-32 neuronal cells were seeded on 6-well plates, and then treated with vehicle and various compounds for 6 hours and 24 hours, as described herein. […] Protein levels in the supernatant of these cell lysates were determined using the Pierce Micro-BCA protein assay kit (Thermo Scientific-Piece Biotechnology, Rockford, Ill.) according to the manufacturer's protocol. […]
(§3) All primary antibodies except Actb (Li-COR, Lincoln, Nebr.), Elf2bε and pElf2bε (Abcam, Cambridge, Mass.) were purchased from Cell Signaling Inc. Positive signals on the membrane blots were detected using the Amersham's enhanced chemiluminescence Western Blotting Prime Detection reagents (GE healthcare Lifescience, Pittsburgh, Pa.). Images of luminescence signals on the membrane blots were captured using the LI-COR Odyssey Fc Image system (Lincoln, Nebr.). […] Protein band densities in the Western blots were determined using the Li-COR Image studio software or NIH ImageJ software and then normalized by Actb level in each sample. […]
(§4) To determine if the combination of Compounds CDE can regulate FOXO phosphorylation in the liver, AML-12 cells were treated with control, and 150 ppb of selenium Compounds CDE, and their sulfur analogs, 150 ppb of Compounds HIJ, in serum- and Dex-containing media but without ITS for 6 hours. […] Quantitative data of protein expression in Western blots are presented as mean±SEM of 3 samples. […]

Foxo4 = assay: Western blot of Foxo4 / pFoxo4T28 in AML-12 cells; assay type: cell-based, mouse; details: individual compound, 150 ppb, serum-containing media, 6 hours and 24 hours
Protocol: as §1, §2, §3, §4

SMILES | pFoxo3T32 protein levels (Foxo3) | pFoxo4T28 protein levels (Foxo4)
C[Se]C[C@H]1O[C@@H](n2cnc3c(N)ncnc32)C(O)C1O (stereo in doubt) [Compound C, 5′-Methylselenoadenosine] | No change | No change
Nc1ncnc2c1ncn2[C@@H]1O[C@H](C[Se]CC[C@@H](N)C(=O)O)C(O)C1O (stereo partly drawn) [Compound D, 5′-Selenoadenosyl homocysteine] | No change | No change
C[Se]C[C@H](NC(=O)CC[C@H](N)C(=O)O)C(=O)O [Compound E, γ-L-glutamyl-Se-methyl-L-selenocysteine] | No change | No change
